Laboratory results as given in ChEMBL document CHEMBL6109096, “Synthesis, anti-allergic rhinitis evaluation and mechanism investigation of novel 1,2,4-triazole-enamides as CB1 R antagonist” (Eur J Med Chem, 2025).

System: RAW264.7
Experiment: Cytotoxicity against mouse RAW264.7 cells assessed as reduction in cell viability at 10 uM incubated for 24 hrs by CCK-8 assay
Format: toxicity, cell-based
Details: raw264.7, 24 h

Cc1ccc(-c2nc(C(=O)N(C)/C=C\c3ccccc3)nn2-c2ccccc2)cc1
Activity: Non-toxic
